Patent US20210154170A1, “METHODS OF TREATING NEUROPATHIC PAIN” (Biogen MA Inc., priority 2018, published 2021)
Read-outs that look alike come from different tables or passages of the source.

Assays:
trigeminal neuralgia = conditions: TN, 150 mg tid; cited from earlier work
human hepatocytes = test: Metabolism in human hepatocytes; assay type: in vitro ADME
[1] = Phase 1 study of effect of UGT inhibition by valproic acid on PK of BIIB074; assay type: in vivo, human; conditions: for AUC(0-inf) / AUC(0-t) / Cmax: human, plasma, oral; for AUC(0-inf): read-out: AUCinf, Geo LS mean; for AUC(0-t): read-out: AUClast, Geo LS mean; for Cmax: read-out: Cmax, Geo LS mean
Source text: In clinical practice BIIB074 may be coadministered with UGT inhibitors, which could potentially increase exposure to BIIB074 by reducing the extent of BIIB074 metabolism by UGTs. Valproic acid, which has long been used as a medication to treat seizures and bipolar disorder, is a non specific inhibitor of UGTs and has been used as a probe to determine the effect of UGT inhibition on the PK of compounds that are metabolized by multiple UGTs. Herein, the potential of the UGT inhibitor valproic acid to alter the single dose PK, safety, and tolerability of BIIB074 was assessed to inform the feasibility and safety of coadministration of BIIB074 with compounds known to inhibit UGTs.
• To evaluate the effect of multiple doses of the uridine diphosphate glucuronosyltransferase (UGT) inhibitor valproic acid on the single dose PK of BIIB074. • The primary endpoints that relate to this objective are: maximum observed concentration (Cmax), area under the curve (AUC) from time 0 to infinity (AUCinf), and AUC from time 0 to time of the last measurable concentration (AUClast) for BIIB074. • Other endpoints that relate to the primary objective are the time to reach Cmax (Tmax), time of the last measurable concentration (Tlast), t1/2 apparent clearance (CL/F), and apparent volume of distribution (V/F) for BIIB074.

[2] = BIIB074 with valproic acid/BIIB074 alone
[3] = single dose BIIB074 with valproic acid

Cl.NC(=O)[C@@H]1CC[C@H](c2ccc(OCc3ccccc3F)cc2)N1 [Example 1, (5R)-5-(4-{[(2-Fluorophenyl)methyl]oxy}phenyl)-L-prolinamide hydrochloride]
Clinical efficacy (trigeminal neuralgia): EFFICACY OBSERVED in TN | Main route of metabolism (human hepatocytes): mainly metabolized by uridine diphosphate glucuronosyltransferases (UGTs) | AUCinf, Geo LS mean ratio [1, 2]: 1.68 | AUClast, Geo LS mean ratio [1, 2]: 1.69 | Cmax, Geo LS mean ratio [1, 2]: 0.97 | AUC(0-inf) ([1]; single dose BIIB074 alone): 16000 ng·h/mL | AUC(0-t) ([1]; single dose BIIB074 alone): 15700 ng·h/mL | Cmax ([1]; single dose BIIB074 alone): 1310 ng/mL | AUC(0-inf) [1, 3]: 26900 ng·h/mL | AUC(0-t) [1, 3]: 26500 ng·h/mL | Cmax [1, 3]: 1260 ng/mL | Elimination with valproic acid ([1]; in vivo): prolonged | Exposure (AUC) with valproic acid compared to BIIB074 alone ([1]; in vivo): increased | Exposure based on AUCinf and AUClast higher with valproic acid than alone ([1]; in vivo): ~70% | Change in Cmax with valproic acid compared to BIIB074 alone ([1]; in vivo, listed as BIIB074, hydrochloride): no change | Plasma exposure higher with valproic acid at steady state than alone ([1]; single dose): approximately 1.7 fold
